# In article PMC11141368, “Antioxidant, antibacterial, enzyme inhibition and fluorescence characteristics of unsymmetrical thiourea derivatives” (Heliyon, 2024):
# How the values were obtained:
# [1] = target: T1, acetylcholinesterase (AChE) (Electrophorus electricus, UniProt O42275); experiment: biochemical; conditions: for inhibition at 62.5 µg/mL / inhibition at 125 µg/mL / inhibition at 250 µg/mL / inhibition at 500 µg/mL / inhibition at 1000 µg/mL: read-out: AChE Percent inhibition
# T1 construct: The AChE was derived from the electric eel, while BChE was obtained from equineserum; from tissue; host or cells: electric eel (tissue not specified)
# T1 sequence (O42275 24-633): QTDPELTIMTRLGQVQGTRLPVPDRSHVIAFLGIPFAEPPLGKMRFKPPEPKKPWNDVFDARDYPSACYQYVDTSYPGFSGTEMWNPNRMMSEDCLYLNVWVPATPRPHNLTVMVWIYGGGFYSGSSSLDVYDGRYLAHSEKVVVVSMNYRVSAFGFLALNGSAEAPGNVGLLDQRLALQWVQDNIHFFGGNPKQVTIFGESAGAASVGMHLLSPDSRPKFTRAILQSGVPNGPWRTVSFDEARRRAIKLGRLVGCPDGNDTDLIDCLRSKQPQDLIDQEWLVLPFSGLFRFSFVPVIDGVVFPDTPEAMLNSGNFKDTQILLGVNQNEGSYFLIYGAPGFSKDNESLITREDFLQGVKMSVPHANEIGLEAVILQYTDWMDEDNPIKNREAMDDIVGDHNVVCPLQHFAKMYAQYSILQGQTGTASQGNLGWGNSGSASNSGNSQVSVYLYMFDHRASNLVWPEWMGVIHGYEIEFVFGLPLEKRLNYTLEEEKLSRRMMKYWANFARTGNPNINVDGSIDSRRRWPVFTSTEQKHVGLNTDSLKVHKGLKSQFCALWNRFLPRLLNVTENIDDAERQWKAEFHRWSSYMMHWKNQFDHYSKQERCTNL
# Method: (§1) This assay employed two enzymes, namely acetylcholinesterase (AChE) and butyryl cholinesterase (BChE). The AChE was derived from the electric eel, while BChE was obtained from equineserum. The synthesized compounds were dissolved in phosphate buffer (0.1 M, pH 8.0). The enzymes AChE (518 U/mg) and BChE (7–16 U/mg) were diluted in a 0.1 M phosphate buffer to achieve concentrations of 0.03 U/mL and 0.01 U/mL, respectively. Preparations of ATchI (0.5 mM), DTNB (0.2273 mM), and BTchI (0.5 mM) were made in distilled water and stored at a low temperature of 8 °C. […] The solution was heated to 30 °C for 15 min, followed by the gradual addition of the substrate. Absorbance of the heated sample at 412 nm was measured using a double beam spectrophotometer. […] The percentage activity (A) and inhibition of the enzyme were determined by applying the rate of absorption as a function of time (V=ΔAbs/Δt) using the following equation (Equation (2)).(2) %Inhibition=V/Vmax×100 Where V = enzyme inhibition activity of products and Vmax = enzyme activity without test of product.
# S. flexenari = experiment: Antibacterial agar well diffusion; type: cell-based; conditions: 24 h, 6.25 mg/mL per well, 37 °C
# P. aeruginosa = experiment: Antibacterial agar well diffusion; type: cell-based, Pseudomonas aeruginosa (ATCC27853); conditions: Pseudomonas aeruginosa, 24 h, 6.25 mg/mL per well, 37 °C
# Text: (§2) The antibacterial assay was done for all compounds (1–6) as described in previous studies. The mean number of viable organisms per milliliter of stock suspensions containing Escherichia coli (ATCC25922), Pseudomonas aeruginosa (ATCC27853), Salmonella typhi (ATCC0650), and Staphylococcus aureus (NCTC25953) was uncovered using the surface viable counting method. Preparations of suspensions containing approximately 108–109 colony forming units (CFU) per milliliter were made. Aseptic nutritional agar was formulated and transferred onto petri dishes. Cultures of bacteria were uniformly distributed on agar surface using sterile brush sticks. Five wells, each with a diameter of 6 mm, were made in each plate using a sterile borer. Afterwards, a concentration of 6.25 mg/mL of each component was applied to separate wells. Cephradine, a readily accessible antibiotic, was employed as a reference standard at an equivalent concentration. Following sealing, the agar dishes were incubated at a controlled temperature of 37 °C for a period of 24 h. The zone of inhibition in the plates was determined, which represents the inhibition of bacterial growth. Each sample zone of inhibition diameter was evaluated, and the antibacterial effectiveness of each drug was quantified according to the mean diameter of the inhibition zone (in millimetres).
# S. typhi = experiment: Antibacterial agar well diffusion; type: cell-based, Salmonella typhi (ATCC0650); conditions: Salmonella enterica, TYPHI, 24 h, 6.25 mg/mL per well, 37 °C
# Text: as §2
# [2] = target: T2, butyryl cholinesterase (BChE) (Equus caballus, UniProt P81908); experiment: Anticholinesterase assay (Elman's test), BChE; type: biochemical; conditions: for inhibition at 62.5 µg/mL / inhibition at 125 µg/mL / inhibition at 250 µg/mL / inhibition at 500 µg/mL / inhibition at 1000 µg/mL: read-out: BChE Percent inhibition
# T2 construct: The AChE was derived from the electric eel, while BChE was obtained from equineserum; from tissue; host or cells: equine serum
# T2 sequence (P81908 whole entry): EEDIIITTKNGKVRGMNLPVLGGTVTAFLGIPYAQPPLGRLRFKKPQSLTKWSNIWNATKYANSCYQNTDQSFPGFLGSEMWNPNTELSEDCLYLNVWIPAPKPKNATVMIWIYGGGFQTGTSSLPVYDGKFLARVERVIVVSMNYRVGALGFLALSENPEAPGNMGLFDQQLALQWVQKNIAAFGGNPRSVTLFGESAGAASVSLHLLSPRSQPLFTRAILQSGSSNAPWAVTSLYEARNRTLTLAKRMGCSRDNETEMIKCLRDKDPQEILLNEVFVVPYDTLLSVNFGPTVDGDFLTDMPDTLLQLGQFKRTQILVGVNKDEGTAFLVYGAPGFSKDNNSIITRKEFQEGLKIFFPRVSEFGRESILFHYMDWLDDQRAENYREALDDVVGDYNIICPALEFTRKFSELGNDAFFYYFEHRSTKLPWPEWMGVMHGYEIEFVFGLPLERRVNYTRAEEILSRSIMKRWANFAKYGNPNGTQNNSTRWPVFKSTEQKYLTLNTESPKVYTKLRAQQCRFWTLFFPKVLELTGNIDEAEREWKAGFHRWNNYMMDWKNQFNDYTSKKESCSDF
# Method: as §1
# E. coli = experiment: Antibacterial agar well diffusion; type: cell-based, Escherichia coli (ATCC25922); conditions: Escherichia coli, 24 h, 6.25 mg/mL per well, 37 °C
# Text: as §2
# [3] = DPPH free radical scavenging assay; type: biochemical
# Method: (§3) In accordance with the procedure described in the literature, the ABTS activity assay was applied to evaluate the free radical scavenging capabilities of the synthesized compounds (1–6). ABTS solution was prepared by mixing 7 mM ABTS and 2.45 mM potassium persulfate and was then placed for 16 h under dark at room temperature. A methanol dilution was performed on the solution to achieve an absorbance of 0.706 ± 0.001 at 734 nm before starting the assay. To quantify the assay, 3 mL of the ABTS solution has been added to different concentrations (ranging from 62.5 to 1000 μg/mL) of every compound (300 μL) that were dissolved in methanol. Then after 1 min of incubation, the absorbance was continuously measured for 5 min. To confirm precision, all experiments were conducted in triplicate. The antioxidant capacities of the compounds were assessed with gallic acid as a reference, and the ability to remove free radicals was calculated as a percentage for each compound employing Equation.1 as presented below. Additionally, the DPPH free radical scavenging method was employed to assess the antioxidant activity of compounds (1–6), in accordance with a widely recognized procedure documented in existing literature. Concentrations ranging from 62.5 to 1000 μg/mL of compounds (1–6), dissolved in methanol, were introduced into a 2 mL solution of DPPH (0.002 % in methanol). The resulting solutions were kept in the dark at room temperature for a duration of 30 min. The amount of light absorbed by the solutions was then determined using a UV/vis spectrophotometer at a wavelength of 517 nm. The investigations were performed three times, using the exact protocol described for the ABTS scavenging assay. Afterwards, the antioxidant capabilities of each molecule were assessed using calculation.(1) Scavengingactivity(%)=A−B/A×100
# (§4) Where, A = absorbance of ABTS/DPPH and B = absorbance of solution containing ABTS/DPPH and test samples.
# [4] = ABTS free radical scavenging assay; type: biochemical
# Method: as §3, §4
compound,measurement,setting,value
"S=C(Nc1ccc(Cl)cc1)NC1CCCCC1 [Compound 4, 1-(4-chlorophenyl)-3-cyclohexylthiourea]",IC50,[1],928 µM
same,inhibition at 62.5 µg/mL,[1],31.9 ± 0.48%
same,inhibition at 125 µg/mL,[1],39 ± 0.48%
same,inhibition at 250 µg/mL,[1],47.9 ± 0.96%
same,inhibition at 500 µg/mL,[1],61.6 ± 1.34%
same,inhibition at 1000 µg/mL,[1],69.6 ± 1.12%
same,zone of inhibition at 6250 µg/mL,S. flexenari,13 mm
same,zone of inhibition at 6250 µg/mL,P. aeruginosa,10 mm
same,zone of inhibition at 6250 µg/mL,S. typhi,11.5 mm
same,IC50,[2],814 µM
same,inhibition at 62.5 µg/mL,[2],33 ± 1.15%
same,inhibition at 125 µg/mL,[2],42.7 ± 0.89%
same,inhibition at 250 µg/mL,[2],49 ± 0.58%
same,inhibition at 500 µg/mL,[2],63.03 ± 0.23%
same,inhibition at 1000 µg/mL,[2],71.33 ± 0.49%
same,zone of inhibition at 6250 µg/mL,E. coli,12 mm
same,DPPH IC50,[3],67.11 µg/mL
same,DPPH %inhibition,[3]; 62.5 μg/mL,48.18 ± 2.31%
same,DPPH %inhibition,[3]; 125 μg/mL,54.67 ± 2.08%
same,DPPH %inhibition,[3]; 250 μg/mL,63.74 ± 0.81%
same,DPPH %inhibition,[3]; 500 μg/mL,72.29 ± 0.27%
same,DPPH %inhibition,[3]; 1000 μg/mL,82.11 ± 1.20%
same,ABTS IC50,[4],67.01 µg/mL
same,ABTS %inhibition,[4]; 62.5 μg/mL,48.19 ± 1.26%
same,ABTS %inhibition,[4]; 250 μg/mL,61.14 ± 1.43%
same,ABTS %inhibition,[4]; 500 μg/mL,71.03 ± 1.61%
same,ABTS %inhibition,[4]; 1000 μg/mL,81.23 ± 1.01%
"Cc1cccnc1NC(=S)NC1CCCCC1 [Compound 2, 1-cyclohexyl-3-(3-methylpyridin-2-yl)thiourea]",IC50,[1],1480 µM
same,inhibition at 62.5 µg/mL,[1],29.7 ± 0.61%
same,inhibition at 125 µg/mL,[1],35.7 ± 0.77%
same,inhibition at 250 µg/mL,[1],43.8 ± 0.56%
same,inhibition at 500 µg/mL,[1],54.6 ± 0.8%
same,inhibition at 1000 µg/mL,[1],62.6 ± 0.77%
same,zone of inhibition at 6250 µg/mL,S. flexenari,11 mm
same,zone of inhibition at 6250 µg/mL,P. aeruginosa,13.5 mm
same,zone of inhibition at 6250 µg/mL,S. typhi,11.5 mm
same,IC50,[2],1260 µM
same,inhibition at 62.5 µg/mL,[2],31.5 ± 0.71%
same,inhibition at 125 µg/mL,[2],37.5 ± 0.77%
same,inhibition at 250 µg/mL,[2],45.8 ± 0.58%
same,inhibition at 500 µg/mL,[2],56.45 ± 0.49%
same,inhibition at 1000 µg/mL,[2],64.79 ± 0.62%
same,zone of inhibition at 6250 µg/mL,E. coli,9.5 mm
same,DPPH IC50,[3],72.00 µg/mL
same,DPPH %inhibition,[3]; 62.5 μg/mL,46.51 ± 2.74%
same,DPPH %inhibition,[3]; 125 μg/mL,54.86 ± 2.86%
same,DPPH %inhibition,[3]; 250 μg/mL,64.15 ± 2.10%
same,DPPH %inhibition,[3]; 500 μg/mL,73.41 ± 2.87%
same,DPPH %inhibition,[3]; 1000 μg/mL,81.22 ± 2.89%
same,ABTS IC50,[4],82.02 µg/mL
same,ABTS %inhibition,[4]; 62.5 μg/mL,45.52 ± 2.80%
same,ABTS %inhibition,[4]; 125 μg/mL,51.10 ± 1.39%
same,ABTS %inhibition,[4]; 250 μg/mL,60.39 ± 1.71%
same,ABTS %inhibition,[4]; 500 μg/mL,70.37 ± 2.37%
same,ABTS %inhibition,[4]; 1000 μg/mL,79.87 ± 2.65%
"S=C(Nc1ccccc1)Nc1cccc(Cl)c1 [Compound 6, 1-(3-chlorophenyl)-3-phenylthiourea]",IC50,[1],329 µM
same,inhibition at 62.5 µg/mL,[1],47.61 ± 0.43%
same,inhibition at 125 µg/mL,[1],52.7 ± 1.01%
same,inhibition at 250 µg/mL,[1],57.8 ± 1.5%
same,inhibition at 500 µg/mL,[1],62.84 ± 0.3%
same,inhibition at 1000 µg/mL,[1],67.51 ± 0.54%
same,zone of inhibition at 6250 µg/mL,S. flexenari,10.5 mm
same,zone of inhibition at 6250 µg/mL,P. aeruginosa,15.5 mm
same,zone of inhibition at 6250 µg/mL,S. typhi,9.5 mm
same,IC50,[2],216 µM
same,inhibition at 62.5 µg/mL,[2],51.61 ± 0.43%
same,inhibition at 125 µg/mL,[2],55.1 ± 0.6%
same,inhibition at 250 µg/mL,[2],61.2 ± 1.4%
same,inhibition at 500 µg/mL,[2],66.8 ± 7.85%
same,inhibition at 1000 µg/mL,[2],71.6 ± 1.63%
same,zone of inhibition at 6250 µg/mL,E. coli,8.5 mm
same,DPPH IC50,[3],90.30 µg/mL
same,DPPH %inhibition,[3]; 62.5 μg/mL,43.49 ± 2.72%
same,DPPH %inhibition,[3]; 125 μg/mL,53.66 ± 1.17%
same,DPPH %inhibition,[3]; 250 μg/mL,61.47 ± 2.74%
same,DPPH %inhibition,[3]; 500 μg/mL,76.24 ± 2.61%
same,DPPH %inhibition,[3]; 1000 μg/mL,82.19 ± 2.32%
same,ABTS IC50,[4],86.03 µg/mL
same,ABTS %inhibition,[4]; 62.5 μg/mL,44.27 ± 1.53%
same,ABTS %inhibition,[4]; 125 μg/mL,53.26 ± 2.76%
same,ABTS %inhibition,[4]; 250 μg/mL,63.09 ± 1.34%
same,ABTS %inhibition,[4]; 500 μg/mL,75.19 ± 2.59%
same,ABTS %inhibition,[4]; 1000 μg/mL,81.28 ± 2.17%
